Our source for the viability and cell viability values is US20230130144A1, “PHARMACEUTICAL COMBINATION AND USE THEREOF” (NATURAL MEDICINE INSTITUTE OF ZHEJIANG YANGSHENGTANG CO., …, priority 2020, published 2023).

Where “and” joins values, the source holds several entries; their conditions need not be identical. Equal values may be shown once. Read-outs that look alike come from different tables or passages of the source.

What all share (type): cell-based
The subject of data set [1] is HOS human osteosarcoma cells. As to the kind of experiment: Cell count (Trypan Blue) viability, drug combination administration, HOS cells. As to conditions: 24 h, read-out: cell viability. Here is the method:
HEK293 cells, HOS human osteosarcoma cells and 143B human osteosarcoma cells were subcultured in an incubator at 37° C., 5% CO2 using a RPMI-1640 medium containing 10% fetal bovine serum (FBS).
(§1) 10 μL was taken for counting.
(3) After counting, the cells were diluted to 1×10^5 cells/ml.
(§2) (5) After 24 h of dosing, the medium was discarded. […] The cells were digested for 5 min.

The subject of data set [2] is 143B human osteosarcoma cells. As to the kind of experiment: Cell count (Trypan Blue) viability, drug combination administration, 143B cells. As to conditions: 24 h; for viability at 20 µM / viability at 10 µM / viability at 50 µM: Homo sapiens, read-out: cell viability. How it is done:
as §1, §2

In data set [3] the test system is MC38 colon cancer cells. As to the kind of experiment: Cell viability of colon cancer cells by the method of Example 1. Conditions: Mus musculus. How it is done:
(§3) (6) After digestion, equivalent amounts of PBS were added into each well and mixed uniformly. Then, 10 μL/well of Trypan Blue solution was added and mixed uniformly. 10 μL of the well-mixed solution was taken and counted. In accordance with “Cell viability=Cell Count of Test Group/Cell Count of Control Group×100%”, the cell viability of various groups was calculated.
For example, as for MC38 colon cancer cells, the control group involves adding the solvent DMSO alone, the Nic group involves adding 1 μM of Niclosamide, the Vc group involves adding 0.5 mM of ascorbic acid, the Nic+Vc group involves adding 1 μM of Niclosamide and 0.5 mM of ascorbic acid.

Data set [4] concerns DB lymphoma cells. As to the kind of experiment: Cell viability of lymphoma cells by the method of Example 1. Conditions: Homo sapiens. Here is the method: as §3
For example, as for the DB lymphoma cells, the control group involves adding the solvent DMSO alone, the Vc group involves adding 2 mM of ascorbic acid, the low-dose Nic group involves adding 1 μM of Niclosamide, the low-dose Nic+Vc group involves adding 1 μM of Niclosamide and 2 mM of ascorbic acid, the high-dose Nic group involves adding 2 μM of Niclosamide, and the high-dose Nic+Vc group involves adding 2 μM of Niclosamide and 2 mM of ascorbic acid.

For `Cc1cc(-c2ncc(CC(=O)Nc3ccc(-c4cnccn4)cn3)cc2C)ccn1` [LGK974], the viability at 20 µM in data set [1] (HOS) came to 67%; in data set [2] (143B), 64%.
Consider `O=C1O[C@H]([C@@H](O)CO)C([O-])=C1O.[Na+]` [sodium ascorbate], for which the cell viability in data set [2] (143B cells, 0.5 mM sodium ascorbate alone) was 106% and 90% and 83% and 77% and 80% and 81% and 82%.
With `COc1ccc2cc3[n+](cc2c1OC)CCc1cc2c(cc1-3)OCO2` [berberine], the figures for the viability at 20 µM in data set [1] (HOS) and in data set [2] (143B) were 82% and 94%, respectively.
As for `O=C1O[C@H]([C@@H](O)CO)C(O)=C1O` [ascorbic acid], the viability at 500 µM in data set [3] (MC-38, 0.5 mM ascorbic acid alone) came out at 105%. Also, the viability at 2000 µM in data set [4] (2 mM ascorbic acid alone) is 76%.
For `O=C(O)CC[C@H]1CC[C@@](c2cc(F)ccc2F)(S(=O)(=O)c2ccc(Cl)cc2)CC1` [MK0752], the viability at 20 µM is 67% in data set [1] (HOS) and 62% in data set [2] (143B).
`CC(C)(C(=O)NCC(F)(F)C(F)(F)F)C(=O)N[C@@H]1C(=O)Nc2ccccc2-c2ccccc21` [RO4929097]: the viability at 10 µM was found to be 56% in data set [1] (HOS) and 58% in data set [2] (143B).
Taken in the same sequence, the figures for `Cc1c(C(=O)Nc2ccc(N3C[C@@H](C)O[C@@H](C)C3)nc2)cccc1-c1ccc(OC(F)(F)F)cc1` [Sonidegib] were 89% and 74%.
Turning to `Cn1c(=O)c2c(ncn2CC(=O)Nc2ccc(-c3ccccc3)nn2)n(C)c1=O` [ETC-159], the viability at 20 µM in data set [1] (HOS) was 67%; in data set [2] (143B), 60%.
Turning to `CS(=O)(=O)c1ccc(C(=O)Nc2ccc(Cl)c(-c3ccccn3)c2)c(Cl)c1` [Vismodegib], the viability at 50 µM in data set [1] (HOS cells, single drug 50 μM) came to 53%; in data set [2] (143B cells, single drug 50 μM) it was 60%.
Consider `CC1=C(CC(=O)O)c2cc(F)ccc2/C1=C\c1ccc([S+](C)[O-])cc1` (centres unmarked) [Sulindac], for which the viability at 50 µM in data set [1] (HOS) worked out at 92%.
Regarding `O=C(Nc1ccc([N+](=O)[O-])cc1Cl)c1cc(Cl)ccc1O` [Niclosamide], the viability at 50 µM in data set [1] (HOS) came to 56%; in data set [2] (143B), 59%. Further, the viability at 1 µM in data set [3] (MC-38, 1 μM Niclosamide alone) came to 82%; in data set [4] (1 μM Niclosamide alone (low-dose)), 57%. Besides, in data set [4] (2 μM Niclosamide alone (high-dose)), the viability at 2 µM worked out at 52%.

What is called viability is a read-out of living cells in per cent, often relative to untreated cells. The term cell viability denotes a read-out of living cells in per cent, often relative to untreated cells.
